Measurements reported in the supplement of paper PMC10307832.

Legend:
Experiment in all cases: relative viability (nuclei count vs DMSO), 5 days (fraction); higher = more cells survive
[1] = compound: NS(=O)(=O)OC[C@@H]1C[C@@H](n2ccc3c(N[C@H]4CCc5ccccc54)ncnc32)C[C@@H]1O [MLN4924] + C[C@@H](Oc1cc(-c2cnn(C3CCNCC3)c2)cnc1N)c1c(Cl)ccc(F)c1Cl [Crizotinib] (partner 1 µM)
Procedure, shortened: (§1)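 One day after seeding in 1536-well plates, lung cancer cell lines were dosed by pin tool. Dosing was either single-drug or a fixed anchor-drug dose plus five library-drug doses (not always all listed) in √10 steps. After 5 days, nuclei were stained in one fix-and-stain step and counted on 4× images, and relative viability is the nuclei count of treated wells over that of vehicle wells, given as the median of duplicate plates.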

[2] = compound: NS(=O)(=O)OC[C@@H]1C[C@@H](n2ccc3c(N[C@H]4CCc5ccccc54)ncnc32)C[C@@H]1O [MLN4924] + CCNC(=O)c1noc(-c2cc(C(C)C)c(O)cc2O)c1-c1ccc(CN2CCOCC2)cc1 [Luminespib] (partner 0.01 µM)
Procedure, shortened: as §1

[3] = compound: NS(=O)(=O)OC[C@@H]1C[C@@H](n2ccc3c(N[C@H]4CCc5ccccc54)ncnc32)C[C@@H]1O [MLN4924] + N=C(N)NC(=N)NCCc1ccccc1 [Phenformin] (partner 250 µM)
Procedure, shortened: as §1

[4] = compound: CC[C@H](C)N1C=C(C2=C(C=C(C=C21)C3=CN=C(C=C3)N4CCNCC4)C(=O)NCC5=C(C=C(NC5=O)C)C)C [GSK126] + CCNC(=O)c1noc(-c2cc(C(C)C)c(O)cc2O)c1-c1ccc(CN2CCOCC2)cc1 [Luminespib] (partner 0.01 µM)
Procedure, shortened: as §1

Cell Line	relative viability ([1]; first compound 0.04 µM)	relative viability ([1]; first compound 0.1265 µM)	relative viability ([1]; first compound 0.4 µM)	relative viability ([1]; first compound 1.265 µM)	relative viability ([1]; first compound 4 µM)	relative viability ([2]; first compound 0.04 µM)	relative viability ([2]; first compound 0.1265 µM)	relative viability ([2]; first compound 0.4 µM)	relative viability ([2]; first compound 1.265 µM)	relative viability ([2]; first compound 4 µM)	relative viability ([3]; first compound 0.04 µM)	relative viability ([3]; first compound 0.1265 µM)	relative viability ([3]; first compound 0.4 µM)	relative viability ([3]; first compound 1.265 µM)	relative viability ([3]; first compound 4 µM)	relative viability ([4]; first compound 0.08 µM)	relative viability ([4]; first compound 0.253 µM)	relative viability ([4]; first compound 0.8 µM)	relative viability ([4]; first compound 2.53 µM)	relative viability ([4]; first compound 8 µM)
NCI-H1915	0.862	0.751	0.844	0.19	0.15	0.728	0.639	0.761	0.231	0.17	0.347	0.33	0.291	0.179	0.211	0.986	0.771	0.788	0.823	0.841
NCI-H650	0.676	0.402	0.289	0.135	0.179	0.86	0.543	0.367	0.17	0.162	0.355	0.287	0.224	0.197	0.199	0.92	0.787	0.744	0.834	0.876
SW 1573	0.802	0.734	0.748	0.0862	0.0778	0.259	0.365	0.0849	0.0812	0.0892	0.325	0.297	0.144	0.086	0.0734	0.424	0.374	0.196	0.43	0.16
NCI-H460	0.886	0.929	0.689	0.0391	0.0185	0.0434	0.0335	0.0273	0.0208	0.0178	0.548	0.448	0.496	0.0336	0.0252	0.0467	0.0392	0.0346	0.0287	0.0416
COR-L23	0.588	0.567	0.431	0.136	0.0871	0.67	0.569	0.42	0.174	0.139	0.42	0.332	0.326	0.133	0.0871	0.752	0.702	0.614	0.637	0.608
NCI-H2009	0.859	0.544	0.242	0.0917	0.0613	0.924	0.553	0.292	0.18	0.139	0.24	0.184	0.156	0.0904	0.0791	1.1	1.01	0.968	1.06	1.09
NCI-H1563	1.1	1.14	1.01	0.579	0.552	0.556	0.539	0.53	0.435	0.407	0.832	0.87	0.666	0.498	0.57	0.546	0.491	0.535	0.514	0.505
PC-3 [JPC-3]	0.986	0.909	0.477	0.34	0.293	0.799	0.773	0.552	0.346	0.327	0.482	0.482	0.404	0.323	0.341	0.75	0.728	0.745	0.708	0.734
NCI-H2085	0.702	0.83	0.662	0.676	0.35	0.422	0.407	0.534	0.375	0.311	0.754	0.676	0.598	0.443	0.348	0.52	0.514	0.414	0.406	0.623
EKVX	0.865	0.654	0.461	0.226	0.133	0.943	0.756	0.682	0.257	0.166	0.228	0.221	0.239	0.175	0.138	0.842	0.878	0.856	0.836	0.896
NCI-H1792	0.961	0.906	0.834	0.69	0.346	0.515	0.436	0.495	0.321	0.359	0.403	0.324	0.725	0.258	0.217	0.386	0.401	0.443	0.483	0.355
NCI-H2405	0.797	0.667	0.478	0.266	0.242	0.608	0.469	0.518	0.286	0.241	0.403	0.446	0.362	0.284	0.306	0.946	0.74	0.711	0.695	0.604
ABC-1	0.901	0.29	0.132	0.0913	0.223	1.14	0.548	0.306	0.184	0.24	0.274	0.298	0.229	0.212	0.222	0.737	0.449	0.575	1.13	0.955
201T	1.05	0.994	0.984	0.401	0.391	1.15	0.916	0.887	0.384	0.29	0.553	0.555	0.43	0.278	0.327	1.01	1.05	1.08	1.12	1.2
